Measurements as given in patent US11999727B2 (Tango Therapeutics, Inc., priority 2020, dated 2024).
Read-outs that look alike come from different tables or passages of the source.

Key:
PRMT5 [1] = target: T1, PRMT5 (Homo sapiens, UniProt O14744); experiment: PRMT5 biochemical IC50 assay with SAM as cofactor; conditions: PRMT5, SAM as cofactor; read-out: SAM IC50
T1 construct: purchased Viva (custom protein)

[2] = tested on: HAP1 MTAP-intact cell line; experiment: SDMA in-cell western assay, HAP1 MTAP-intact; type: cell-based; conditions: HAP1 MTAP-intact, read-out: MTAP HAP1 intact IC50
Procedure, shortened: (§1)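 Readout: in-cell western detection of SDMA. Cells: HAP1 expressing endogenous MTAP and an MTAP-null HAP1 counterpart. Output: IC50.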

PRMT5 [3] = target: T1, PRMT5; experiment: PRMT5 biochemical IC50 assay with no cofactor; conditions: PRMT5, no cofactor
From the text: Table 1 indicates IC50 values (μM) against PRMT5 for exemplary compounds in the presence of SAM as cofactor, with no cofactor, and with MTA as cofactor, respectively (columns 4-6). […] Ki values can be calculated from the IC50 values as described in the Examples section. As detailed in the Examples section, for the assay performed in the presence of SAM, IC50=Ki×1.5 (Ki=IC50/1.5).

[4] = tested on: HAP1 MTAP-deleted cell line; experiment: Viability assay, MTAP-deleted cell line; type: cell-based; conditions: Homo sapiens, read-out: HAP1 MTAP deleted viability
From the text: Table 1 additionally indicates IC50 values in a viability assay for the MTAP-deleted cell line (column 10), indicating the effect of treatment with compound on cell survival.

PRMT5 [5] = target: T1, PRMT5; experiment: PRMT5 biochemical IC50 assay with MTA as cofactor; conditions: PRMT5, MTA as cofactor; read-out: MTA IC50
[6] = tested on: HAP1 MTAP-deleted cell line; experiment: SDMA in-cell western assay, HAP1 MTAP-deleted; type: cell-based; conditions: for IC50: HAP1 MTAP-deleted
Procedure, shortened: as §1

[7] = HAP1, viability assay, MTAP-deleted cell line
[8] = IC50 ratio HAP1 MTAP-intact / HAP1 MTAP-deleted, SDMA in-cell western
[9] = Homo sapiens, HAP1, SDMA in-cell western
[10] = HAP1, viability assay, HAP1 MTAP-deleted
[11] = Homo sapiens, HAP1, SDMA in-cell western, read-out: HAP1 MTAP deleted IC50
[12] = IC50 ratio HAP1 MTAP-intact vs HAP1 MTAP-deleted, SDMA in-cell western
[13] = HAP1, viability IC50, MTAP-deleted cell line
[14] = Homo sapiens, HAP1, SDMA in-cell western, read-out: HAP 1 MTAP deleted IC50
[15] = read-out: No Cofactor/ rel IC50

T1 sequence (O14744 whole entry): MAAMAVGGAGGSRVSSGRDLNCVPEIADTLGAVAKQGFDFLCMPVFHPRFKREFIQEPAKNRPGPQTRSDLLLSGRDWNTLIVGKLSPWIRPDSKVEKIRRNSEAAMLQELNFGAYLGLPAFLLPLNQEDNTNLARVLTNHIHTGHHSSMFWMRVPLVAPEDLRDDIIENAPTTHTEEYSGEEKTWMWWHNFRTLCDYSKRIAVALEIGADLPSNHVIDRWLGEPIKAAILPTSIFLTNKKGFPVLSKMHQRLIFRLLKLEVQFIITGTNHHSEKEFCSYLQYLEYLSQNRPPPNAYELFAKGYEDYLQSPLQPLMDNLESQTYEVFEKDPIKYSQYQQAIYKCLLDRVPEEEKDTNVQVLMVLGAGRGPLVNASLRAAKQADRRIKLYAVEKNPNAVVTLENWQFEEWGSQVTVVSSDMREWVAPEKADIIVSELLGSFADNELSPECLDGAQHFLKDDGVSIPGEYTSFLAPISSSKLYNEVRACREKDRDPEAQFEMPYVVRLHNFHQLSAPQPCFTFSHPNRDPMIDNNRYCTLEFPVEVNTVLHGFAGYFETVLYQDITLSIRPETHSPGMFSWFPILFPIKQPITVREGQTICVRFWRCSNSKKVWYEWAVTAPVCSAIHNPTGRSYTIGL
T1 sequence (Q9BQA1 whole entry partner): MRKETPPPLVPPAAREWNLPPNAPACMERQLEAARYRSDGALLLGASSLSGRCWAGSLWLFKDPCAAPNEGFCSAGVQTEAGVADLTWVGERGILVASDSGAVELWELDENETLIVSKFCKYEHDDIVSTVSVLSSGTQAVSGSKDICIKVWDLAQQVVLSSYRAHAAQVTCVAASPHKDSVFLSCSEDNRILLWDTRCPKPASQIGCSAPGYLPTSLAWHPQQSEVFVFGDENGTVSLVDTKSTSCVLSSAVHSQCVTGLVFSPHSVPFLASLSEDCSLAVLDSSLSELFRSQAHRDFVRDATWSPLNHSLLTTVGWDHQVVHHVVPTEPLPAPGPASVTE

IC50 (PRMT5 [1]) [nM] | IC50 ([2]; SDMA in-cell western) [nM] | IC50 (PRMT5 [3]; read-out: No Cofactor/rel IC50) [nM] | IC50 (PRMT5 [5]) [nM] | IC50 ([6]; SDMA in-cell western, read-out: HAP1 MTAP deleted IC50) [nM] | IC50 [2, 9] [nM] | IC50 [6, 11] [nM] | IC50 [6, 14] [nM] | IC50 (PRMT5 [3]; [15]) [nM] | Structure (SMILES) | IC50 [4, 7] [nM] | MTAP intact/deleted ratio [6, 8] | IC50 [4, 10] [nM] | MTAP intact/deleted ratio [6, 12] | IC50 [4, 13] [nM] | IC50 ([4]; HAP1, viability, HAP1 MTAP-deleted cell line) [nM]
50 to 500 | > 1000 | 50 to 500 | < 50 | 100 to 1000 |  |  |  |  | COc1ncc(NC(=O)C(=O)N2CCCCC2C2CCCCC2)cc1C(N)=O (single isomer, unassigned) [Compound 347, 5-(2-(2-cyclohexylpiperidin-1-yl)-2-oxoacetamido)-2-methoxynicotinamide] | 1000 to 10000 | A (an IC50 ratio greater than or equal to 10 fold) |  |  |  | 
50 to 500 |  | > 500 | 50 to 500 |  | > 1000 | > 1000 |  |  | [H][C@@]1([C@]2([H])C[C@@]3(C[C@H](O)C3)C2)CC[C@@H](C)CN1C(=O)C(=O)Nc1cnc(N)c(C)c1 (single isomer, unassigned) [Compound 767] |  | B (an IC50 ratio greater than or equal to 3 fold but lower than 10 fold) | > 10000 |  |  | 
50 to 500 |  | < 50 | < 50 |  | 100 to 1000 | < 100 |  |  | CCc1cc(NC(=O)C(=O)N2C[C@@H](C)CC[C@@H]2c2ccc3sc([C@H]4CCN(C)C(=O)C4)nc3c2)cnc1N (single isomer, unassigned) [Compound 1136] | < 1000 |  |  | A (an IC50 ratio greater than or equal to 10 fold) |  | 
50 to 500 |  | 50 to 500 | < 50 |  | 100 to 1000 |  | < 100 |  | Cc1cc(NC(=O)C(=O)N2C[C@H](C)CC[C@H]2c2ccc(F)c(O)c2)cnc1N (racemic) [Compound 555, N-(6-amino-5-methyl-3-pyridyl)-2-[(2R,5S)-2-(4-fluoro-3-hydroxy-phenyl)-5-methyl-1-piperidyl]-2-oxo-acetamide] |  | A (an IC50 ratio greater than or equal to 10 fold) |  |  | < 1000 | 
50 to 500 |  | 50 to 500 | < 50 |  | 100 to 1000 |  | < 100 |  | CCc1ccc([C@@H]2CC[C@@H](C)CN2C(=O)C(=O)Nc2cnc(N)c(C)c2)cn1 (single isomer, unassigned) [Compound 1013] | 1000 to 10000 | B (an IC50 ratio greater than or equal to 3 fold but lower than 10 fold) |  |  |  | 
50 to 500 |  | < 50 | < 50 |  | < 100 | < 100 |  |  | CCc1cc(NC(=O)C(=O)N2[C@@H](C)CCC[C@H]2c2ccc3sc(C4CCN(C)CC4)nc3c2)cnc1N (single isomer, unassigned) [Compound 1173] | < 1000 |  |  | A (an IC50 ratio greater than or equal to 10 fold) |  | 
50 to 500 |  | 50 to 500 | < 50 |  | > 1000 | 100 to 1000 |  |  | COc1ncc(NC(=O)C(=O)N2C[C@@H](C)CC[C@@H]2c2ccc(-c3nccs3)cc2)cc1C(N)=O (single isomer, unassigned) [Compound 811] |  | A (an IC50 ratio greater than or equal to 10 fold) | 1000 to 10000 |  |  | 
50 to 500 |  | 50 to 500 | 50 to 500 |  | > 1000 |  | < 100 |  | C[C@@H]1CC[C@@H](c2ccc(O)c(C(C)(C)C)c2)N(C(=O)C(=O)Nc2cncc(C(N)=O)c2)C1 (racemic) [Compound 610, 5-[[2-[(2R,5S)-2-(3-tert-Butyl-4-hydroxy-phenyl)-5-methyl-1-piperidyl]-2-oxo-acetyl]amino]pyridine-3-carboxamide] |  | A (an IC50 ratio greater than or equal to 10 fold) |  |  | 1000 to 10000 | 
50 to 500 |  |  | < 50 |  | 100 to 1000 |  | < 100 | < 50 | CCc1cc(NC(=O)C(=O)N2C[C@@H](C)CC[C@@H]2c2ccc(OCCN(C)C)cc2)cnc1N [Compound 1292, N-(6-amino-5-ethylpyridin-3-yl)-2-((2R,5S)-2-(4-(2-(dimethylamino)ethoxy)phenyl)-5-methylpiperidin-1-yl)-2-oxoacetamide] |  | A (an IC50 ratio greater than or equal to 10 fold) |  |  |  | < 1000
50 to 500 |  | 50 to 500 | < 50 |  | 100 to 1000 |  | 100 to 1000 |  | Cc1cc(NC(=O)C(=O)N2C[C@@H](C)CC[C@@H]2c2ccc(C(F)(F)F)c(Cl)c2)cnc1N (single isomer, unassigned) [Compound 703] |  | C (an IC50 ratio of less than 3 fold) |  |  | 1000 to 10000 | 
> 500 |  | 50 to 500 | 50 to 500 |  | > 1000 | > 1000 |  |  | CC(=O)N1CCC([C@@H]2CC[C@@H](C)CN2C(=O)C(=O)Nc2cnc(N)c(C)c2)CC1 (racemic) [Compound 737, 2-[(2R,5S)-2-(1-acetyl-4-piperidyl)-5-methyl-1-piperidyl]-N-(6-amino-5-methyl-3-pyridyl)-2-oxo-acetamide] |  | B (an IC50 ratio greater than or equal to 3 fold but lower than 10 fold) | > 10000 |  |  | 
> 500 |  |  | 50 to 500 |  | > 1000 |  | > 1000 | > 500 | Cc1cncc(NC(=O)C(=O)N2CCCCC2c2cccc(N(C)C)c2)c1 (stereo not drawn) [Compound 15, 2-(2-(3-(dimethylamino)phenyl)piperidin-1-yl)-N-(5-methylpyridin-3-yl)-2-oxoacetamide] | > 10000 | C (an IC50 ratio of less than 3 fold) |  |  |  | 
50 to 500 |  | 50 to 500 | < 50 |  | > 1000 | 100 to 1000 |  |  | COc1ncc(NC(=O)C(=O)N2C[C@H](C)CC[C@H]2c2ccc3c(c2)CNC3=O)cc1C(N)=O (single isomer, unassigned) [Compound 749, 2-methoxy-5-(2-(5-methyl-2-(1-oxoisoindolin-5-yl)piperidin-1-yl)-2-oxoacetamido)nicotinamide] |  | A (an IC50 ratio greater than or equal to 10 fold) | 1000 to 10000 |  |  | 
> 500 |  | > 500 | 50 to 500 |  | > 1000 |  | 100 to 1000 |  | Cc1cc(NC(=O)C(=O)N2C[C@H](C)CC[C@H]2c2ccc3c(=O)[nH]ccc3c2)cnc1N (single isomer, unassigned) [Compound 953] | > 10000 | A (an IC50 ratio greater than or equal to 10 fold) |  |  |  | 
50 to 500 |  | > 500 | 50 to 500 |  | > 1000 | > 1000 |  |  | C[C@@H]1CCC[C@H]2CN(C(=O)C(=O)Nc3cncc(C(N)=O)c3)CC[C@H]21 (racemic) [Compound 515, 5-(2-(5-methyloctahydroisoquinolin-2(1H)-yl)-2-oxoacetamido)nicotinamide] | > 10000 | B (an IC50 ratio greater than or equal to 3 fold but lower than 10 fold) |  |  |  | 
50 to 500 |  | 50 to 500 | < 50 |  | > 1000 |  | 100 to 1000 |  | Cc1cc(NC(=O)C(=O)N2C[C@@H](C)CC[C@@H]2c2cc(Cl)cc(C(F)(F)F)c2)cnc1N (single isomer, unassigned) [Compound 665] |  | A (an IC50 ratio greater than or equal to 10 fold) |  |  | 1000 to 10000 | 
> 500 |  | > 500 | > 500 |  | > 1000 | > 1000 |  |  | C[C@H]1CC[C@H](c2ccc3c(c2)CNC3=O)N(C(=O)C(=O)Nc2cncc(C(N)=O)c2)C1 (single isomer, unassigned) [Compound 741, 5-(2-(5-methyl-2-(1-oxoisoindolin-5-yl)piperidin-1-yl)-2-oxoacetamido)nicotinamide] |  | C (an IC50 ratio of less than 3 fold) | > 10000 |  |  | 
50 to 500 |  | 50 to 500 | < 50 |  | > 1000 | 100 to 1000 |  |  | Cc1cc(NC(=O)C(=O)N2C[C@H](C)CC[C@H]2c2cccc3c2CC(=O)N3)cnc1N (racemic) [Compound 714, N-(6-Amino-5-methyl-3-pyridyl)-2-[(2S,5R)-5-methyl-2-(2-oxoindolin-4-yl)-1-piperidyl]-2-oxo-acetamide] |  | A (an IC50 ratio greater than or equal to 10 fold) | 1000 to 10000 |  |  | 
